Our source for the IC50 values is US20070027150A1 (priority 2005, published 2007).

In one assay the target is His-tagged N-terminal ATP binding domain (amino acid residues 9-236) of HSP90α (Homo sapiens, UniProt P07900). Kind of assay: HSP90 inhibitor binding potency: TRF competition binding assay. Particulars: Table I; read-out: Hsp90 IC50 Range. A digest of the protocol:
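His-tagged HSP90α N-domain (residues 9-236) incubated 2 h at room temperature with biotinylated radicicol and increasing compound in 50 mM HEPES, 6 mM MgCl2, 20 mM KCl, 0.1% BSA. Bound tracer captured on streptavidin plates, detected with europium anti-His antibody by time-resolved fluorescence; IC50 derived.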
One may read the IC50 as the concentration at which inhibition is half-maximal. Regarding `Cc1nc(N)nc2c1C(=O)CC(c1ccccc1-c1ccncc1)C2` (centres unmarked) [Compound 27, 2-amino-4-methyl-7-(2-pyridin-4-ylphenyl)-7,8-dihydroquinazolin-5(6H)-one], the IC50 lay in the range of 1 to 10 µM.

Take `Cc1nc(N)nc2c1C(=O)CC(c1ccccc1Oc1ccnc(Cl)c1)C2` (centres unmarked) [Compound 147, 2-amino-7-{2-[(2-chloropyridin-4-yl)oxy]phenyl}-4-methyl-7,8-dihydroquinazolin-5(6H)-one]: the IC50 was 1 to 10 µM.

On to `Cc1nc(N)nc2c1C(=O)CC(c1c(-c3cccnc3F)cnn1C)C2` (centres unmarked) [Compound 64, 2-amino-7-[4-(2-fluoro-pyridin-3-yl)-2-methyl-2H-pyrazol-3-yl]-4-methyl-7,8-dihydro-6H-quinazolin-5-one], for which the IC50 was 1 to 10 µM.

On to `Cc1nc(N)nc2c1C(=O)CC(c1ccccc1-c1cnn(C)c1)C2` (centres unmarked) [Compound 43, 2-amino-4-methyl-7-[2-(1-methyl-1H-pyrazol-4-yl)phenyl]-7,8-dihydroquinazolin-5(6H)-one], for which the IC50 fell in the range of 1 to 10 µM.

On to `Cc1cccc(C2CC(=O)c3c(C)nc(N)nc3C2)c1-c1cccnc1F` (centres unmarked) [Compound 19, 2-amino-7-[2-(2-fluoropyridin-3-yl)-3-methylphenyl]-4-methyl-7,8-dihydroquinazolin-5(6H)-one], for which the half-maximal inhibitory concentration (IC50) lay within 1 to 10 µM.

Take `Cc1nc(N)nc2c1C(=O)CC(c1c(-c3ccccn3)cccc1-c1ccccn1)C2` (centres unmarked) [Compound 38, 2-amino-7-(2,6-dipyridin-2-ylphenyl)-4-methyl-7,8-dihydroquinazolin-5(6H)-one]: the IC50 is under 1 µM.

Take `Cc1ccc(-c2ccccc2C2CC(=O)c3c(C)nc(N)nc3C2)c(C)n1` (centres unmarked) [Compound 66, 2-amino-7-[2-(2,6-dimethylpyridin-3-yl)phenyl]-4-methyl-7,8-dihydroquinazolin-5(6H)-one]: the half-inhibitory concentration (IC50) fell in the range of 1 to 10 µM.

For the molecule `COc1cccc(-c2ccccc2CO)c1C1CC(=O)c2c(C)nc(N)nc2C1` (centres unmarked) [Compound 106, 2-amino-7-[2′-(hydroxymethyl)-3-methoxy-1,1′-biphenyl-2-yl]-4-methyl-7,8-dihydroquinazolin-5(6H)-one], the IC50 is under 1 µM.

Turning to `Cc1nc(N)nc2c1C(=O)CC(c1ccccc1-c1cccc(OC(F)(F)F)c1)C2` (centres unmarked) [Compound 112, 2-amino-4-methyl-7-[3′-(trifluoromethoxy)-1,1′-biphenyl-2-yl]-7,8-dihydroquinazolin-5(6H)-one], the IC50 was over 10 µM.

In the case of `Cc1nc(N)nc2c1C(=O)CC(c1ccccc1C1=CCCC1)C2` (centres unmarked) [Compound 40, 2-amino-7-(2-cyclopent-1-en-1-ylphenyl)-4-methyl-7,8-dihydroquinazolin-5(6H)-one], the IC50 was under 1 µM.

Take `COc1ccc(-c2cncnc2)c(C2CC(=O)c3c(C)nc(N)nc3C2)c1` (centres unmarked) [Compound 75, 2-amino-7-(5-methoxy-2-pyrimidin-5-ylphenyl)-4-methyl-7,8-dihydroquinazolin-5(6H)-one]: the IC50 lay within 1 to 10 µM.

For `Cc1nc(N)nc2c1C(=O)CC(c1ccc(F)cc1-c1cccc(F)n1)C2` (centres unmarked) [Compound 89, 2-amino-7-[4-fluoro-2-(6-fluoro-pyridin-2-yl)-phenyl]-4-methyl-7,8-dihydro-6H-quinazolin-5-one], the half-inhibitory concentration (IC50) was under 1 µM.

Turning to `COc1cccc(Cl)c1C1CC(=O)c2c(C)nc(N)nc2C1` (centres unmarked) [Compound 5, 2-amino-7-(2-chloro-6-methoxy-phenyl)-4-methyl-7,8-dihydro-6H-quinazolin-5-one], the half-inhibitory concentration (IC50) fell in the range of 1 to 10 µM.

As to `Cc1nc(N)nc2c1C(=O)CC(c1ccccc1-c1cnccn1)C2` (centres unmarked) [Compound 31, 2-amino-4-methyl-7-(2-pyrazin-2-ylphenyl)-7,8-dihydroquinazolin-5(6H)-one], the IC50 was under 1 µM.

For `Cc1nc(N)nc2c1C(=O)CC(c1cccnc1-c1ccccc1F)C2` (centres unmarked) [Compound 57, 2-amino-7-[2-(2-fluorophenyl)pyridin-3-yl]-4-methyl-7,8-dihydroquinazolin-5(6H)-one], the IC50 was under 1 µM.

With `Cc1nc(N)nc2c1C(=O)CC(c1ccccc1-c1cccc(C(N)=O)c1)C2` (centres unmarked) [Compound 91, 2′-(2-amino-4-methyl-5-oxo-5,6,7,8-tetrahydroquinazolin-7-yl)-1,1′-biphenyl-3-carboxamide], the IC50 fell in the range of 1 to 10 µM.

As for `Cc1nc(N)nc2c1C(=O)CC(c1c(Br)cnn1C)C2` (centres unmarked) [Compound 10, 2-amino-7-(4-bromo-2-methyl-2H-pyrazol-3-yl)-4-methyl-7,8-dihydro-6H-quinazolin-5-one], the half-maximal inhibitory concentration (IC50) was over 10 µM.

In the case of `COc1cccc(-c2cn(C)nc2C2CC(=O)c3c(C)nc(N)nc3C2)n1` (centres unmarked) [Compound 127, 2-amino-7-[4-(6-methoxy-pyridin-2-yl)-1-methyl-1H-pyrazol-3-yl]-4-methyl-7,8-dihydro-6H-quinazolin-5-one], the IC50 was under 1 µM.

As for `Cc1nc(N)nc2c1C(=O)CC(c1ccccc1-c1ncccn1)C2` (centres unmarked) [Compound 32, 2-amino-4-methyl-7-(2-pyrimidin-2-ylphenyl)-7,8-dihydroquinazolin-5(6H)-one], the IC50 was under 1 µM.

Regarding `Cc1nc(N)nc2c1C(=O)CC(c1ccccc1N1CCCCC1)C2` (centres unmarked) [Compound 12, 2-amino-4-methyl-7-(2-piperidin-1-yl-phenyl)-7,8-dihydro-6H-quinazolin-5-one], the 50% inhibitory concentration (IC50) was under 1 µM.

Staying with this assay, now noted: Table II; read-out: Hsp90 IC50 Range.
As for `C#Cc1cccc(-n2ccnc2C2CC(=O)c3c(C)nc(N)nc3C2)c1` (centres unmarked) [Compound 197, 2-amino-7-[1-(3-ethynyl-phenyl)-1H-imidazol-2-yl]-4-methyl-7,8-dihydro-6H-quinazolin-5-one], the concentration for half-maximal inhibition (IC50) was under 1 µM.

As for `Nc1ncc2c(n1)CC(c1ccccc1-c1cccnc1F)CC2=O` (centres unmarked) [Compound 243, 2-amino-7-[2-(2-fluoro-pyridin-3-yl)-phenyl]-7,8-dihydro-6H-quinazolin-5-one], the 50% inhibitory concentration (IC50) was under 1 µM.

As to `COc1nc(-c2cc(F)ccc2[C@@H]2CC(=O)c3c(C)nc(N)nc3C2)ncc1C` [Compound 275, (S)-2-amino-7-[4-fluoro-2-(4-methoxy-5-methyl-pyrimidin-2-yl)-phenyl]-4-methyl-7,8-dihydro-6H-quinazolin-5-one], the IC50 is under 1 µM.

As for `CCc1nc(N)nc2c1C(=O)CC(c1ccc(F)cc1-c1cccnc1)C2` (centres unmarked) [Compound 318, 2-amino-4-ethyl-7-(4-fluoro-2-pyridin-3-yl-phenyl)-7,8-dihydro-6H-quinazolin-5-one], the IC50 is under 1 µM.

Regarding `Cc1nc(N)nc2c1C(=O)CC(c1c(F)cccc1-c1cccnc1F)C2` (centres unmarked) [Compound 217, 2-amino-7-[2-fluoro-6-(2-fluoro-pyridin-3-yl)-phenyl]-4-methyl-7,8-dihydro-6H-quinazolin-5-one], the IC50 was under 1 µM.

With `Cc1nc(N)nc2c1C(=O)CC(c1ccccc1)C2C` (centres unmarked) [Compound 247, 2-amino-4,8-dimethyl-7-phenyl-7,8-dihydro-6H-quinazolin-5-one], the IC50 is 1 to 10 µM.

Consider `COc1ccc(Cc2nc(N)nc3c2C(=O)CC(c2ccccc2)C3)cc1` (centres unmarked) [Compound 304, 2-amino-4-(4-methoxy-benzyl)-7-phenyl-7,8-dihydro-6H-quinazolin-5-one], for which the IC50 fell in the range of 1 to 10 µM.

Turning to `Cc1nc(N)nc2c1C(=O)CC(c1ccc(F)cc1OCCC1CC1)C2` (centres unmarked) [Compound 262, 2-amino-7-[2-(2-cyclopropyl-ethoxy)-4-fluoro-phenyl]-4-methyl-7,8-dihydro-6H-quinazolin-5-one], the IC50 was under 1 µM.

On to `Cc1nc(N)nc2c1C(=O)CC(c1ccc(F)cc1-c1nccnc1NCCO)C2` (centres unmarked) [Compound 280, 2-amino-7-{4-fluoro-2-[3-(2-hydroxy-ethylamino)-pyrazin-2-yl]-phenyl}-4-methyl-7,8-dihydro-6H-quinazolin-5-one], for which the IC50 was 1 to 10 µM.

Regarding `Cc1nc(N)nc2c1C(=O)CC(c1ncc[nH]1)C2` (centres unmarked) [Compound 234, 2-amino-7-(1H-imidazol-2-yl)-4-methyl-7,8-dihydro-6H-quinazolin-5-one], the 50% inhibitory concentration (IC50) was over 10 µM.

For `COc1cccc(-n2cc(C(F)(F)F)nc2C2CC(=O)c3c(C)nc(N)nc3C2)n1` (centres unmarked) [Compound 205, 2-amino-7-[1-(6-methoxy-pyridin-2-yl)-4-trifluoromethyl-1H-imidazol-2-yl]-4-methyl-7,8-dihydro-6H-quinazolin-5-one], the IC50 was under 1 µM.

Turning to `COc1nc(-c2cc(F)ccc2[C@@H]2CC(=O)c3c(C)nc(N)nc3C2)ncc1Cl` [Compound 300, (S)-2-amino-7-[2-(5-chloro-4-methoxy-pyrimidin-2-yl)-4-fluoro-phenyl]-4-methyl-7,8-dihydro-6H-quinazolin-5-one], the IC50 was under 1 µM.

As to `Cc1nc(N)nc2c1C(=O)C[C@H](c1ccc(F)cc1-c1cccc(F)n1)C2` [Compound 213, (R)-2-amino-7-[4-fluoro-2-(6-fluoro-pyridin-2-yl)-phenyl]-4-methyl-7,8-dihydro-6H-quinazolin-5-one], the IC50 lay within 1 to 10 µM.

In the case of `COc1cncc(-c2cc(F)ccc2C2CC(=O)c3c(C)nc(N)nc3C2)n1` (centres unmarked) [Compound 221, 2-amino-7-[4-fluoro-2-(6-methoxy-pyrazin-2-yl)-phenyl]-4-methyl-7,8-dihydro-6H-quinazolin-5-one], the IC50 was under 1 µM.

For `COc1cccc(-c2cc(F)ccc2[C@H]2CC(=O)c3c(C)nc(N)nc3C2)n1` [Compound 260, (R)-2-amino-7-[4-fluoro-2-(6-methoxy-pyridin-2-yl)-phenyl]-4-methyl-7,8-dihydro-6H-quinazolin-5-one], the IC50 fell in the range of 1 to 10 µM.

In the case of `Cc1nc(N)nc2c1C(=O)CC(c1cccc(F)c1Br)C2` (centres unmarked) [Compound 237, 2-amino-7-(2-bromo-3-fluoro-phenyl)-4-methyl-7,8-dihydro-6H-quinazolin-5-one], the concentration for half-maximal inhibition (IC50) is 1 to 10 µM.

For `Cc1nc(N)nc2c1C(=O)CC(c1cc(F)ccc1Br)C2` (centres unmarked) [Compound 238, 2-amino-7-(2-bromo-5-fluoro-phenyl)-4-methyl-7,8-dihydro-6H-quinazolin-5-one], the IC50 was in the range of 1 to 10 µM.

With `COc1cncc(-c2ccc(F)cc2C2CC(=O)c3c(C)nc(N)nc3C2)n1` (centres unmarked) [Compound 286, 2-amino-7-[5-fluoro-2-(6-methoxy-pyrazin-2-yl)-phenyl]-4-methyl-7,8-dihydro-6H-quinazolin-5-one], the IC50 was in the range of 1 to 10 µM.
